Where two headings read alike, the source gives them in different places.
How the values were obtained:
Drosophila [1] = assay type: in vivo, Drosophila melanogaster
Drosophila [2] = assay: Drosophila olfactory avoidance assay, 2-choice trap; assay type: in vivo, Drosophila melanogaster
Protocol: For each trial, three- to six-day old flies (10 males and 10 females) were starved for 18 hours. Flies were transferred to a cylindrical 38.1 mm D×84.1 mm H chamber containing two traps each fashioned from an upturned 1.5 ml microcentrifuge tube with 2 mm removed from the tapered end. A pipette tip (1000 μl), was cut 2.5 cm from narrow end and 0.5 cm from top and inserted into the bottom of the inverted microcentrifuge tube. A 15 mm×16 mm #1 Whatmann filter paper was inserted in between the pipette tip and tip of microcentrifuge tube in a manner that entering flies cannot make physical contact with it. With reference to FIG. 2A, for the 1-choice test, a 50 μl sample of test odorant (50% DEET in DMSO) was applied to filter paper and 125 μl of 10% apple cider vinegar (ACV) is applied to the upturned lid of the microcentrifuge tube as attractant. With reference again to FIG. 2A, for the 2-choice test, two 10% ACV lured traps were placed in the cylinder, one with DMSO as the solvent (right) and another with DEET (left).

[3] = molecular target: human acetylcholinesterase (Homo sapiens, UniProt P22303); conditions: Corbel et al., BMC Biol, 7, 2009; cited from earlier work
human acetylcholinesterase, sequence (P22303 32-614): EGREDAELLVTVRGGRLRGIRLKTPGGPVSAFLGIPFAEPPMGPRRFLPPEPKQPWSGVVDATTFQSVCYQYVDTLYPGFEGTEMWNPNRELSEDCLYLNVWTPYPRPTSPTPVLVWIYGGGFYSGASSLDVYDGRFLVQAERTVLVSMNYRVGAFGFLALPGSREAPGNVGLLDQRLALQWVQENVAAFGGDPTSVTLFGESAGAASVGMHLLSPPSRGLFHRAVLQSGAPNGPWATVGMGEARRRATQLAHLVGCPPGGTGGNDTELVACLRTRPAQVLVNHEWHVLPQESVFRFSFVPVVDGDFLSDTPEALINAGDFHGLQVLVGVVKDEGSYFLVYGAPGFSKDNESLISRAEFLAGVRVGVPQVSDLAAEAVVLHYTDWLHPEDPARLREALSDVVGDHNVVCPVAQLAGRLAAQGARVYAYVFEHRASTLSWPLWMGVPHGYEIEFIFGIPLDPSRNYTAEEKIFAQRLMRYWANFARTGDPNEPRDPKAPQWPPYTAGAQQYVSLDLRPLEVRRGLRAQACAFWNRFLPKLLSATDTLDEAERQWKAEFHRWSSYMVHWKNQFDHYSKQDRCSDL

[4] = tested on: mammalian cation channels; conditions: cited from earlier work

Question: With CCN(CC)C(=O)c1cccc(C)c1 [DEET, N,N-Diethyl-m-toluamide] as the compound, how does the “avoidance of DEET-treated trap” value (Drosophila [1]; Ir25a neuron-TNTG flies (Ir25a-Ga14/UAS-TNTG), 10% ACV lure) read?
Answer: substantially decreased

Question: And the “avoidance of DEET-treated trap” value (Drosophila [1]; Ir40a neuron-TNTG flies (Ir40a-Ga14/UAS-TNTG), versus controls, 10% ACV lure)?
Answer: substantially decreased

Question: And the “avoidance of DEET-treated trap” value (Drosophila [1]; control flies Ir25a-Ga14/UAS-IMPTV, 10% ACV lure)?
Answer: observed to avoid DEET

Question: And the “avoidance of DEET-treated trap” value (Drosophila [1]; control flies Ir40a-G4/+ and UAS-TNTG/+, 10% ACV lure)?
Answer: observed to avoid DEET

Question: What about the “avoidance of DEET-treated trap” value (Drosophila [1]; in vivo) of the same compound?
Answer: observed to avoid DEET

Question: And the “olfactory avoidance to DEET” value (Drosophila [1]; in vivo)?
Answer: nearly abolished

Question: And the “avoidance response to volatile DEET” value (Drosophila [2]; Ir40a neuron-silenced flies (Ir40a-promoter-Ga14, UAS-kir), 10% ACV lure)?
Answer: avoidance was observed to be lost

Question: And the DEET avoidance (Drosophila [2]; Ir40a-RNAi flies (Ir40a-G4 with UAS-Ir40a-RNAi) compared to control flies, 10% ACV lure)?
Answer: loss of DEET avoidance

Question: What about the “olfactory DEET avoidance” value (Drosophila [2]; Ir93a-/- and Ir25a receptor mutant flies, FIG. 6B) of the same compound?
Answer: found to be involved in olfactory DEET avoidance

Question: What about the “olfactory avoidance to DEET” value (Drosophila [2]; two DGRP lines with mutations in Ir40a (RAL-158, RAL-272), DEET 50% in DMSO, 10% ACV lure) of the same compound?
Answer: nearly abolished

Question: And the “avoidance response to volatile DEET” value (Drosophila [2]; two control lines of the Ir40a-promoter-Ga14/UAS-kir experiment, 10% ACV lure)?
Answer: robust and reproducible avoidance response

Question: And the “avoidance response to volatile DEET” value (Drosophila [2]; wild-type Canton-S, DEET 50% in DMSO, 10% ACV lure)?
Answer: robust and reproducible avoidance response

Question: And the “inhibition of human acetylcholinesterase” value [3]?
Answer: inhibit

Question: And the “inhibition of mammalian cation channels” value [4]?
Answer: inhibit

From patent US9910044B2, “Methods for identifying arthropod repellents based on modulation of specific ionotropic receptors, and compounds and compositions identified by such methods” (The Regents of the University of California, priority 2013, dated 2018)
